Drawing on patent US9540392B2, “Thienopyrimidines” (BAYER PHARMA AKTIENGESELLSCHAFT, priority 2012, dated 2017), this text covers IC50 for 24 compounds.

The experiment deals with T1, human full-length MKNK1 (Homo sapiens, UniProt Q9BUB5, T385D).
T1 construct: GST (N); purchased Carna Biosciences 02-145; host or cells: insect cells (baculovirus expression system)
T1 sequence (Q9BUB5 1-424 isoform Q9BUB5-2 T344D): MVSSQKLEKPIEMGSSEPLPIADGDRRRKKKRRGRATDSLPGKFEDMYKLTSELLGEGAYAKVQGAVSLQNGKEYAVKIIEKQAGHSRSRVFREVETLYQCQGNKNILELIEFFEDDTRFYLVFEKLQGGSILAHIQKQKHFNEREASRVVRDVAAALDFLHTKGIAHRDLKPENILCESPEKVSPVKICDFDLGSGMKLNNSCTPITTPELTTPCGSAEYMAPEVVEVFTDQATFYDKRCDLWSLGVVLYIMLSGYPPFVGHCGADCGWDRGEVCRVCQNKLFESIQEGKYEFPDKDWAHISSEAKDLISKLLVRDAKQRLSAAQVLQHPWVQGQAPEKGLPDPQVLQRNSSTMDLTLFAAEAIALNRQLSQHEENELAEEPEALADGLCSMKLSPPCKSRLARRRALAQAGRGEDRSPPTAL
Put plainly: MKNK1 kinase high ATP assay (TR-FRET). In kind it is biochemical. The settings on record: 2 mM ATP, after preincubation with MKNK1; read-out: MKNK1 IC50 (MKNK1 high ATP). As for the experimental part: MKNK1-inhibitory activity at high ATP of compounds of the present invention after their preincubation with MKNK1 was quantified employing the TR-FRET-based MKNK1 high ATP assay as described in the following paragraphs.
As substrate for the kinase reaction the biotinylated peptide biotin-Ahx-[…] (C-terminus in amide form) was used, which can be purchased e.g. from the company Biosyntan (Berlin-Buch, Germany).
For the assay 50 nL of a 100 fold concentrated solution of the test compound in DMSO was pipetted into a black low volume 384 well microtiter plate (Greiner Bio-One, Frickenhausen, Germany), 2 μL of a solution of MKNK1 in aqueous assay buffer [50 mM HEPES pH 7.5, 5 mM MgCl2, 1.0 mM dithiothreitol, 0.005% (v/v) Nonidet-P40 (Sigma)] was added and the mixture was incubated for 15 min at 22° C. to allow pre-binding of the test compounds to the enzyme before the start of the kinase reaction. Then the kinase reaction was started by the addition of 3 μL of a solution of adenosine-tri-phosphate (ATP, 3.3 mM=>final conc. in the 5 μL assay volume is 2 mM) and substrate (0.1 μM=>final conc. in the 5 μL assay volume is 0.06 μM) in assay buffer and the resulting mixture was incubated for a reaction time of 30 min at 22° C. The concentration of MKNK1 was adjusted depending of the activity of the enzyme lot and was chosen appropriate to have the assay in the linear range, typical concentrations were in the range of 0.003 μg/mL. The reaction was stopped by the addition of 5 μL of a solution of TR-FRET detection reagents (5 nM streptavidine-XL665 [Cisbio Bioassays, Codolet, France] and 1 nM anti-ribosomal protein S6 (pSer236)-antibody from Invitrogen [#44921G] and 1 nM LANCE EU-W1024 Labeled ProteinG [Perkin-Elmer, product no. AD0071]) in an aqueous EDTA-solution (100 mM EDTA, 0.1% (w/v) bovine serum albumin in 50 mM HEPES pH 7.5).
The resulting mixture was incubated for 1 h at 22° C. to allow the formation of complex between the phosphorylated biotinylated peptide and the detection reagents. Subsequently the amount of phosphorylated substrate was evaluated by measurement of the resonance energy transfer from the Eu-chelate to the streptavidine-XL. Therefore, the fluorescence emissions at 620 nm and 665 nm after excitation at 350 nm were measured in a TR-FRET reader, e.g. a Rubystar (BMG Labtechnologies, Offenburg, Germany) or a Viewlux (Perkin-Elmer). The ratio of the emissions at 665 nm and at 622 nm was taken as the measure for the amount of phosphorylated substrate.
For orientation: Time-resolved FRET reads energy transfer from a long-lived donor to a nearby acceptor.
What is called IC50 is the concentration needed to halve the response being measured. On to `COc1cc2[nH]ncc2cc1Nc1ncnc2sc3c(c12)CCC(C(=O)N1[C@H](C)CC[C@H]1C)C3` (mixture of isomers) [Example 178, [(2R,5R)-2,5-Dimethylpyrrolidin-1-yl]{(7RS)-4-[(6-methoxy-1H-indazol-5-yl)amino]-5,6,7,8-tetrahydro[1]benzothieno[2,3-d]pyrimidin-7-yl}methanone], for which the IC50 came out at 0.2 nM. `CC(C)Oc1cc2[nH]ncc2cc1Nc1ncnc2sc3c(c12)CCC(C(=O)N1[C@H](C)CC[C@H]1C)C3` (mixture of isomers) [Example 227, [(2R,5R)-2,5-Dimethylpyrrolidin-1-yl]{(7RS)-4-[(6-isopropoxy-1H-indazol-5-yl)amino]-5,6,7,8-tetrahydro[1]benzothieno[2,3-d]pyrimidin-7-yl}methanone]: the IC50 worked out at 0.6 nM. In the case of `CCOc1cc2[nH]ncc2cc1Nc1ncnc2sc3c(c12)CCC(C(=O)N1CC[C@@H](O)C1)C3` (mixture of isomers) [Example 233, {(7RS)-4-[(6-Ethoxy-1H-indazol-5-yl)amino]-5,6,7,8-tetrahydro[1]benzothieno[2,3-d]pyrimidin-7-yl}[(3R)-3-hydroxypyrrolidin-1-yl]methanone] it was 0.5 nM; in that of `COc1cc2[nH]ncc2cc1Nc1ncnc2sc3c(c12)CCC(C(=O)N1C[C@@H](O)[C@H](O)C1)C3` (mixture of isomers) [Example 243, [(3R,4R)-3,4-Dihydroxypyrrolidin-1-yl]{(7RS)-4-[(6-methoxy-1H-indazol-5-yl)amino]-5,6,7,8-tetrahydro[1]benzothieno[2,3-d]pyrimidin-7-yl}methanone], 0.3 nM.

On to `COc1cc2[nH]ncc2cc1Nc1ncnc2sc3c(c12)CCC(C(=O)N1C[C@H](O)[C@@H](O)C1)C3` (mixture of isomers) [Example 244, [(3R,4R)-3,4-Dihydroxypyrrolidin-1-yl]{(7RS)-4-[(6-methoxy-1H-indazol-5-yl)amino]-5,6,7,8-tetrahydro[1]benzothieno[2,3-d]pyrimidin-7-yl}methanone], for which the IC50 was found to be 0.4 nM. Regarding `CCOc1cc2[nH]ncc2cc1Nc1ncnc2sc3c(c12)CCC(C(=O)N1CC[C@H](O)C1)C3` (mixture of isomers) [Example 246, {(7RS)-4-[(6-Ethoxy-1H-indazol-5-yl)amino]-5,6,7,8-tetrahydro[1]benzothieno[2,3-d]pyrimidin-7-yl}[(3S)-3-hydroxypyrrolidin-1-yl]methanone], the IC50 worked out at 0.9 nM.

For the compound `COc1cc2[nH]ncc2cc1Nc1ncnc2sc3c(c12)CCC(C(=O)N1CC2CC1CO2)C3` (mixture of isomers) [Example 262, {(7RS)-4-[(6-Methoxy-1H-indazol-5-yl)amino]-5,6,7,8-tetrahydro[1]benzothieno[2,3-d]pyrimidin-7-yl}[(1S,4S)-2-oxa-5-azabicyclo[2.2.1]hept-5-yl]methanone], the IC50 was 6.1 nM. The figure for `CCOC(=O)C1CCc2c(sc3ncnc(Nc4ccc5[nH]ncc5c4C)c23)C1` (racemic) [Example 60, (RS)-Ethyl 4-[(4-methyl-1H-indazol-5-yl)amino]-5,6,7,8-tetrahydro[1]benzothieno[2,3-d]pyrimidine-7-carboxylate] is 2180 nM; for `CCOC(=O)C1CCc2c(sc3ncnc(Nc4ccc5[nH]nc(C)c5c4)c23)C1` (racemic) [Example 61, (RS)-Ethyl 4-[(3-methyl-1H-indazol-5-yl)amino]-5,6,7,8-tetrahydro[1]benzothieno[2,3-d]pyrimidine-7-carboxylate] it is 1020 nM. `Cc1n[nH]c2ccc(Nc3ncnc4sc5c(c34)CCC(C(=O)O)C5)cc12` (racemic) [Example 62, (RS)-4-[(3-Methyl-1H-indazol-5-yl)amino]-5,6,7,8-tetrahydro[1]benzothieno[2,3-d]pyrimidine-7-carboxylic acid]: the IC50 stood at 1420 nM. With `CC(C)NC(=O)C1CCc2c(sc3ncnc(Nc4cc5cn[nH]c5cc4F)c23)C1` (racemic) [Example 63, (RS)-4-[(6-Fluoro-1H-indazol-5-yl)amino]-N-(propan-2-yl)-5,6,7,8-tetrahydro[1]benzothieno[2,3-d]pyrimidine-7-carboxamide], the IC50 stood at 10.2 nM. In the case of `CC(C)Oc1cc2[nH]ncc2cc1Nc1ncnc2sc3c(c12)CCC(C(=O)O)C3` (racemic) [Example 69, (RS)-4-{[6-(Propan-2-yloxy)-1H-indazol-5-yl]amino}-5,6,7,8-tetrahydro[1]benzothieno[2,3-d]pyrimidine-7-carboxylic acid] it was 3.9 nM. As to `COC(=O)C1CCc2c(sc3ncnc(Nc4ccc5[nH]ncc5c4)c23)C1` (racemic) [Example 73, (RS)-Methyl 4-(1H-indazol-5-ylamino)-5,6,7,8-tetrahydro[1]benzothieno[2,3-d]pyrimidine-7-carboxylate], the IC50 stood at 8.9 nM. In the case of `CC(C)OC(=O)C1CCc2c(sc3ncnc(Nc4ccc5[nH]ncc5c4)c23)C1` (racemic) [Example 74, (RS)-Propan-2-yl 4-(1H-indazol-5-ylamino)-5,6,7,8-tetrahydro[1]benzothieno[2,3-d]pyrimidine-7-carboxylate] it was 27.6 nM; in that of `O=C(NCc1cccnc1)C1CCc2c(sc3ncnc(Nc4ccc5[nH]ncc5c4)c23)C1` (racemic) [Example 76, (RS)-4-(1H-Indazol-5-ylamino)-N-(pyridin-3-ylmethyl)-5,6,7,8-tetrahydro[1]benzothieno[2,3-d]pyrimidine-7-carboxamide], 5.1 nM. The figure for `N#Cc1ccc(NC(=O)C2CCc3c(sc4ncnc(Nc5ccc6[nH]ncc6c5)c34)C2)cc1` (racemic) [Example 77, (RS)—N-(4-Cyanophenyl)-4-(1H-indazol-5-ylamino)-5,6,7,8-tetrahydro[1]benzothieno[2,3-d]pyrimidine-7-carboxamide] is 19.7 nM; for `O=C(NC1COC1)C1CCc2c(sc3ncnc(Nc4ccc5[nH]ncc5c4)c23)C1` (racemic) [Example 78, (RS)-4-(1H-Indazol-5-ylamino)-N-(oxetan-3-yl)-5,6,7,8-tetrahydro[1]benzothieno[2,3-d]pyrimidine-7-carboxamide] it is 15.6 nM.

Take `N#Cc1cccc(NC(=O)C2CCc3c(sc4ncnc(Nc5ccc6[nH]ncc6c5)c34)C2)c1` (racemic) [Example 79, (RS)—N-(3-Cyanophenyl)-4-(1H-indazol-5-ylamino)-5,6,7,8-tetrahydro[1]benzothieno[2,3-d]pyrimidine-7-carboxamide]: the IC50 worked out at 10.5 nM. For `O=C(NC1CC1)C1CCc2c(sc3ncnc(Nc4ccc5[nH]ncc5c4)c23)C1` (racemic) [Example 80, (RS)-N-Cyclopropyl-4-(1H-indazol-5-ylamino)-5,6,7,8-tetrahydro[1]benzothieno[2,3-d]pyrimidine-7-carboxamide], the IC50 turned out to be 9.1 nM.

For the compound `O=C(NCc1ccccn1)C1CCc2c(sc3ncnc(Nc4ccc5[nH]ncc5c4)c23)C1` (racemic) [Example 81, (RS)-4-(1H-indazol-5-ylamino)-N-(pyridin-2-ylmethyl)-5,6,7,8-tetrahydro[1]benzothieno[2,3-d]pyrimidine-7-carboxamide], the IC50 turned out to be 2.4 nM. The figure for `O=C(C1CCc2c(sc3ncnc(Nc4ccc5[nH]ncc5c4)c23)C1)N1CCCCC1` (racemic) [Example 82, (RS)-[4-(1H-indazol-5-ylamino)-5,6,7,8-tetrahydro[1]benzothieno[2,3-d]pyrimidin-7-yl](piperidin-1-yl)methanone] is 14.6 nM; for `CCN(CC)C(=O)C1CCc2c(sc3ncnc(Nc4ccc5[nH]ncc5c4)c23)C1` (racemic) [Example 83, (RS)-N,N-diethyl-4-(1H-indazol-5-ylamino)-5,6,7,8-tetrahydro[1]benzothieno[2,3-d]pyrimidine-7-carboxamide] it is 14.7 nM. In the case of `CN(C)CCN(Cc1ccccc1)C(=O)C1CCc2c(sc3ncnc(Nc4ccc5[nH]ncc5c4)c23)C1` (racemic) [Example 84, (RS)-N-benzyl-N-[2-(dimethylamino)ethyl]-4-(1H-indazol-5-ylamino)-5,6,7,8-tetrahydro[1]benzothieno[2,3-d]pyrimidine-7-carboxamide] it was 5.5 nM; in that of `O=C(C1CCc2c(sc3ncnc(Nc4ccc5[nH]ncc5c4)c23)C1)N1CCC(O)CC1` (racemic) [Example 85, (RS)-(4-hydroxypiperidin-1-yl)[4-(1H-indazol-5-ylamino)-5,6,7,8-tetrahydro[1]benzothieno[2,3-d]pyrimidin-7-yl]methanone], 11.7 nM.
